Columns and labels:
[1] = target: wild type MLL1 five-member complex (MLL1-5C) (Homo sapiens, UniProt Q03164); assay: MLL1 Flashplate assay; assay type: biochemical; conditions: 2.5 nM MLL1-5C, 0.5 μM 3H-SAM, 1 μM H3K4me0; read-out: MLL1 flash plate
Experimental: MLL1 Flashplate Assay To assess the compound potency in MLL1 Flashplate assay, compounds were serially diluted 3-fold in DMSO to obtain a total of twelve concentrations. Then the test compounds at each concentration (250 nL of each) were transferred by Mosquito into Corning #3675 384-well plate. Solutions (15 μL) of 4.2 nM wild type MLL1 five-member complex (MLL1-5C) in the assay buffer (20 mM Tris-HCl, pH8.0, 0.01% Tween 20, 1 mM DTT, 0.01% BSA) were added to the wells. A 10 μL solution of 2.5 μM of the peptide substrate H3K4me0 (histone H3[1-21]-Biotin) and 1.25 μM ^3H-SAM in the reaction buffer was then added to initiate each reaction. The final components in the reaction solution include 2.5 nM MLL1-5C, 0.5 μM ^3H-SAM, and 1 μM H3K4me0 with varying concentration of the compounds. A positive control consisted of 2.5 nM MLL1-5C, 0.5 μM ^3H-SAM, and 1 μM substrate in the absence of the test compound, and a negative control consisted of 0.5 μM ^3H-SAM, and 1 μM substrate only. Each reaction was incubated at rt for 90 min, then stopped by addition of 5 μL per of quench solution (0.5 mM SAM in assay buffer). 25 μL of each reaction solution was transferred to FlashPlate streptavidin 384-well microplate (PerkinElmer). After at least 1 h incubation at rt, the wells were washed three times with 0.1% Tween-20 in dH2O using the BioTek plate washer. The plates were then read in MicroBeta (PerkinElmer). The radioactive readouts were then normalized based on the values coming from the positive and negative controls to give percent enzyme activities. The data were then fit to a dose response equation using the program Helios to get the IC50 values of the test compounds.

H3K4me3 in MV4-11 cells = assay: MV4-11 H3K4Me3 cellular ELISA assay; assay type: cell-based; conditions: Homo sapiens, 48 hours, H3K4me3 signal normalized to total H3
Experimental: MV4-11H3K4Me3 Cellular ELISA Assay
MV4-11 (ATCC® CRL-9591™) was cultured with RPMI1640 medium (Thermo Fisher Scientific, cat #11875) supplemented with 10% FBS (Thermo Fisher Scientific, cat #10099141) and 50 U/ml Penicillin-Streptomycin (Thermo Fisher Scientific, cat #10378016) in humidified incubator at 37° C., 5% CO2.
200 nL compounds dissolved in DMSO were serially diluted at 1:3 ratio for 12 points starting from 10 mM and dispensed into each wells of cell culture plates (PDL-coated ViewPlate-384 Black, FTC, PerkinElmer, #6007710). 3,750 MV4-11 cells in 40 μL culture medium were seeded into each well and treated with desired concentration for 48 hours. After treatment, wash cells with cold phosphate based buffer (PBS, pH 7.4) and aspirate the remaining PBS buffer. Crude histone lysate was extracted by 40 μL 0.5M HCl for 1 hour in 4° C. following neutralization by adding 32 μL neutralization buffer (0.5M Sodium phosphate dibasic, pH˜12.5, 1.25 mM Dithiothreitol, Promega #V3151, Protease Inhibitor Cocktail, Sigma #8340) for each well. 5 μL and 20 μL of histone lysate was loaded to ELISA plate (384 Well Plates, PE HB, White, 6005620) for detection of total H3 and H3K4me3, respectively. Shake the plates gently in 4° C. for overnight. After histone binding, plates were washed with 80 μL PBS/T (PBS with 0.05% Tween-20) and blocked with 50 μL 3% BSA diluted in PBS/T per well for 1 hour. Incubate wells with primary antibody for 1 hour at room temperature using anti-H3K4me3 (CST #9727) and anti-total H3 (CST #9715) diluted 1:2000 in 3% BSA. Plates were then washed with PBS/T for 3 times and incubated with horseradish peroxidase (HRP) conjugated secondary antibody (CST #7074, 1:5000) for 1 hour at room temperature. The abundance of H3K4me3 and total H3 were measured by ECL substrates chemiluminesce (Pierce, #34080) on a plate reader (PerkinElmer EnVison 2104 Mutilable Reader). Percentage inhibition was calculated against DMSO control after normalization of H3K4me3 signal to H3 signal for individual samples. The data were then fit to a dose response curve using GraphPad Prism for IC50 calculation.

[2] = target: wild type MLL1 four-member complex (MLL1-4C) (Homo sapiens, UniProt Q03164); assay: MLL1 LC-MS assay; assay type: biochemical; conditions: 30 nM MLL1-4C, 2.5 μM SAM, 10 μM H3K4me0; SAH production by LC-MS/MS; read-out: MLL1 LCMS
Experimental: The compounds of the present disclosure were serially and separately diluted 3-fold in DMSO to obtain a total of eight or twelve concentrations. Then the test compounds at each concentration (120 nL of each) were transferred by Mosquito into white Proxiplate plus 384-well microplate (PerkinElmer). Solutions (6 μL) of 60 nM wild type MLL1 four-member complex (MLL1-4C) and 5 μM SAM in the reaction buffer (20 mM Tris-HCl, pH8.0, 0.01% Tween 20, 1 mM DTT, 10 mM MgCl2, 0.01% BSA) were added to the wells that were then incubated with the test compound for 20 min. A 6 μL solution of 20 μM of the peptide substrate H3K4me0 (histone H3[1-21]-Biotin) in the reaction buffer was added to initiate each reaction. The final components in the reaction solution include 30 nM MLL1-4C, 2.5 μM SAM, and 10 μM H3K4me0 with varying concentration of the compounds. A positive control consisted of 30 nM MLL1-4C, 2.5 μM SAM, and 10 μM substrate in the absence of the test compound, and a negative control consisted of 2.5 μM SAM, and 10 μM substrate only. Each reaction was incubated at rt for 120 min, then stopped by addition of 3 μL per of quench solution (2.5% TFA with 320 nM d4-SAH). The reaction mixture was centrifuged (Eppendorf centrifuge 5810, Rotor A-4-62) for 2 min at 2000 rmp. The SAH production from the enzymatic assays were monitored by LC-MS/MS on an API 4000 triple quadrupole mass spec with TurboIon Spray (Applied Biosystem) coupled with Prominenece UFLC(Shimazu). The level of SAH production were then normalized based on the values coming from the positive and negative controls to give percent enzyme activities. The data were then fit to a dose response equation using the program Helios (Novartis) to get the IC50 values of the test compounds.

MV4-11 cells = assay: MV4-11 6-day cell growth CTG (CellTiter-Glo) assay; assay type: cell-based; conditions: Homo sapiens, 144 h, 6 days
Experimental: MV4-11 6-Day Cell Growth CTG (CellTiter-Glo) Assay
Acute myeloid leukemia cell MV4-11 (ATCC® CRL-9591™) was cultured with RPMI 1640 medium (Thermo Fisher Scientific, cat #11875) supplemented with 10% FBS (Thermo Fisher Scientific, cat #10099141) in humidified incubator at 37° C., 5% CO2. To assess the effect of MLL1 inhibition on cell growth, the compound of the present invention was dissolved in DMSO and serially diluted at 1:3 for 12 points starting from 10 mM then 200 nL for the replicate of each dose per well was dispensed to Viewplate-384 Black (Perkin Elmer). Exponentially growing MV4-11 cells were seeded at the density of 300 cells per well in 40 μL to the plate, so the final compound working concentration starts from 50 μM. After 6 days, 40 μL CellTiter-Glo (Promega, cat #G7573) was added into the cell culture well and luminescence was read with Envision (Perkin Elmer) to determine the viable cells. The percentage inhibition was calculated against the samples treated with DMSO only and the data were used for dose response curve fitting in GraphPad Prism to get the IC50 of representative compound of present invention, which reflects the inhibition of MLL1 activity.

Row | Structure (SMILES) | IC50 [1] [nM] | IC50 [2] [nM] | IC50 (MV4-11 cells) [nM] | IC50 (H3K4me3 in MV4-11 cells) [nM]
1 | COC[C@H](N)CCCOc1ccc(Cl)c(Cl)c1Cc1cnc2c(N)ncnn12 [Example 5, (R)-7-(6-((4-amino-5-methoxypentyl)oxy)-2,3-dichlorobenzyl)imidazo[2,1-f][1,2,4]triazin-4-amine] | > 100 | > 100 |  | > 3000
2 | COC[C@H](N)CCCOc1ccc(Cl)c(Cl)c1Cc1cnn2c(N)ncnc12 [Example 8, (R)-8-(6-((4-amino-5-methoxypentyl)oxy)-2,3-dichlorobenzyl)pyrazolo[1,5-a][1,3,5]triazin-4-amine] | > 100 | > 100 |  | > 3000
3 | CCOC[C@H](N)CCCOc1ccc(Cl)c(Cl)c1Cc1cnn2c(N)ncnc12 [Example 16, (R)-8-(6-((4-amino-5-ethoxypentyl)oxy)-2,3-dichlorobenzyl)pyrazolo[1,5-a][1,3,5]triazin-4-amine] | > 100 | > 100 |  | > 3000
4 | COC[C@@H](N)CCOc1ccc(Cl)c(Cl)c1Cc1cnn2c(N)ncnc12 [Example 17, (S)-8-(6-(3-amino-4-methoxybutoxy)-2,3-dichlorobenzyl)pyrazolo[1,5-a][1,3,5]triazin-4-amine] | > 100 | > 100 |  | 
5 | CN[C@H](CCCOc1cc(Cl)cc(Br)c1Cn1cnc2c(N)ncnc21)COC [Example 22, (R)-9-(2-bromo-4-chloro-6-((5-methoxy-4-(methylamino)pentyl)oxy)benzyl)-9H-purin-6-amine] | > 100 | > 100 |  | 
6 | Nc1ncnc2c(Cc3c(OCCC[C@@H](N)CO)ccc(Cl)c3Cl)cnn12 [Example 44, (R)-2-amino-5-(2-((4-aminopyrazolo[1,5-a][1,3,5]triazin-8-yl)methyl)-3,4-dichlorophenoxy)pentan-1-ol] | > 100 | > 100 |  | > 3000
7 | Nc1ncnc2c1ncn2Cc1c(OCCC[C@@H](N)Cn2cccn2)ccc(Cl)c1Cl [Example 49, (R)-9-(6-((4-amino-5-(1H-pyrazol-1-yl)pentyl)oxy)-2,3-dichlorobenzyl)-9H-purin-6-amine] |  | 50 to 100 | > 3000 | 

The next lines start with results.

Row | IC50 [1] [nM] | IC50 [2] [nM] | IC50 (MV4-11 cells) [nM] | Structure (SMILES) | IC50 (H3K4me3 in MV4-11 cells) [nM]
8 |  | 50 to 100 | < 2000 | COC[C@H](N)COc1ccc2ccccc2c1Cn1cnc2c(N)ncnc21 [Example 19, (S)-9-((2-(2-amino-3-methoxypropoxy)naphthalen-1-yl)methyl)-9H-purin-6-amine] | 1900 to 3000
9 | > 100 | 50 to 100 |  | COC[C@H](N)CCCOc1cc2ccccc2cc1Cn1cnc2c(N)ncnc21 [Example 21, (R)-9-((3-((4-amino-5-methoxypentyl)oxy)naphthalen-2-yl)methyl)-9H-purin-6-amine] | > 3000
10 |  | 50 to 100 | > 3000 | COc1nc(N)c2ncn(Cc3c(Cl)cc(Cl)cc3OCCC[C@@H](N)C(=O)O)c2n1 [Example 27, (R)-2-amino-5-(2-((6-amino-2-methoxy-9H-purin-9-yl)methyl)-3,5-dichlorophenoxy)pentanoic acid] | 
11 |  | 50 to 100 | < 2000 | CCOC(=O)[C@H](N)CCC(C)Oc1ccc(Cl)c(Cl)c1Cn1cnc2c(N)ncnc21 (stereo partly drawn) [Example 30, Ethyl (2R)-2-amino-5-(2-((6-amino-9H-purin-9-yl)methyl)-3,4-dichlorophenoxy)hexanoate] | 1900 to 3000
12 |  | < 50 | < 2000 | COC(=O)C(N)CCCOc1cc(Cl)cc(Cl)c1Cn1cnc2c(N)ncc(Cl)c21 (centres unmarked) [Example 31, Methyl 2-amino-5-(2-((4-amino-7-chloro-1H-imidazo[4,5-c]pyridin-1-yl)methyl)-3,5-dichlorophenoxy)pentanoate] | 
13 |  | 50 to 100 | < 2000 | CCOC(=O)[C@H](N)CCCOc1cc(Cl)cc(Cl)c1Cn1cnc2c(N)ncnc21 [Example 32, ethyl (R)-2-amino-5-(2-((6-amino-9H-purin-9-yl)methyl)-3,5-dichlorophenoxy)pentanoate] | 
14 | < 60 | < 50 |  | Nc1ncnn2c(Cc3c(OCCC[C@@H](N)C(=O)NC4CC4)ccc(Cl)c3Cl)cnc12 [Example 36, (R)-2-amino-5-(2-((4-aminoimidazo[2,1-f][1,2,4]triazin-7-yl)methyl)-3,4-dichlorophenoxy)-N-cyclopropylpentanamide] | > 3000
15 | > 100 | 50 to 100 |  | Nc1ncnc2c(Cc3c(OCCC[C@@H](N)C(=O)NC4CC4)ccc(Cl)c3Cl)cnn12 [Example 37, (R)-2-amino-5-(2-((4-aminopyrazolo[1,5-a][1,3,5]triazin-8-yl)methyl)-3,4-dichlorophenoxy)-N-cyclopropylpentanamide] | > 3000
16 |  | 50 to 100 | < 2000 | NC(=O)[C@H](N)CCCOc1ccc(Cl)c(Cl)c1Cn1cnc2c(N)ncnc21 [Example 39, (R)-2-amino-5-(2-((6-amino-9H-purin-9-yl)methyl)-3,4-dichlorophenoxy)pentanamide] | 
